As to `CN(C)c1ccc(/C=C/C(=O)CC(=O)/C=C/c2ccc(N(C)C)cc2Cl)c(Cl)c1` [CU412, (1E,6E)-1,7-bis(2-chloro-4-dimethylaminophenyl)hepta-1,6-diene-3,5-dione], the melting point was in the range of 238 to 241 °C. The same measure for `O=C(/C=C/c1cccc2cccnc12)CC(=O)/C=C/c1cccc2cccnc12` [CU414, (1E,6E)-1,7-bis(quinolin-8-yl)hepta-1,6-diene-3,5-dione]: 202 to 208 °C. `COc1cc(=O)oc2ccc(/C=C/C(=O)CC(=O)/C=C/c3ccc(O)cc3)cc12` [CU415, (1E,6E)-1-(4-hydroxyphenyl)-7-(4-methoxycoumarin-6-yl)hepta-1,6-diene-3,5-dione]: the melting point fell in the range of 250 to 254 °C. Next, `COc1cc(/C=C/C(=O)CC(=O)/C=C/c2cn(Cc3ccccc3)c3ccccc23)ccc1O` [CU416, (1E,6E)-1-(1-benzyl-1H-indol-3-yl)-7-(4-hydroxy-3-methoxyphenyl)hepta-1,6-diene-3,5-dione]: 158 to 161 °C; `COc1ccc(/C=C/C(=O)CC(=O)/C=C/c2cn(Cc3ccccc3)c3ccccc23)cc1O` [CU417, (1E,6E)-1-(1-benzyl-1H-indol-3-yl)-7-(3-hydroxy-4-methoxyphenyl)hepta-1,6-diene-3,5-dione]: 194 to 199 °C; `CC(C)(C)OC(=O)N1CCc2ccc(/C=C/C(=O)CC(=O)/C=C/c3ccc(O)cc3)cc21` [CU419, (1E,6E)-1-[1-(tert-butoxycarbonyl)-indolin-6-yl]-7-(4-hydroxyphenyl)hepta-1,6-diene-3,5-dione]: 111 to 118 °C. Next, `N[C@H](Cc1ccccc1)C(=O)Nc1ccc(/C=C/C(=O)CC(=O)/C=C/c2ccc(O)cc2)cc1` [CU423, (1E,6E)-1-[4-((R)-2-amino-3-phenylpropionylamino)phenyl]-7-(4-hydroxyphenyl)hepta-1,6-diene-3,5-dione]: 161 to 167 °C; `O=C(/C=C/c1ccc(O)cc1)CC(=O)/C=C/c1ccccc1CO` [CU424, (1E,6E)-1-(2-hydroxymethylphenyl)-7-(4-hydroxyphenyl)hepta-1,6-diene-3,5-dione]: 173 to 180 °C. Next, `CCN(CC)c1ccc(/C=C/C(=O)CC(=O)/C=C/c2ccc(O)cc2)c(OC(=O)c2ccccc2)c1` [CU425, (1E,6E)-1-(2-benzoyloxy-4-diethylaminophenyl)-7-(4-hydroxyphenyl)hepta-1,6-diene-3,5-dione]: 212 to 215 °C; `CCN(CC)c1ccc(/C=C/C(=O)CC(=O)/C=C/c2ccc(O)cc2)c(OCC=C(C)C)c1` [CU426, (1E,6E)-1-(4-diethylamino-2-prenyloxyphenyl)-7-(4-hydroxyphenyl)hepta-1,6-diene-3,5-dione]: 69 to 76 °C; `CCN(CC)c1ccc(/C=C/C(=O)CC(=O)/C=C/c2ccc(N(CC)CC)cc2OC(=O)c2ccccc2)c(OC(=O)c2ccccc2)c1` [CU427, (1E,6E)-1,7-bis(2-benzoyloxy-4-diethylaminophenyl)hepta-1,6-diene-3,5-dione]: 192 to 196 °C. Consider `CCN(CC)c1ccc(/C=C/C(=O)CC(=O)/C=C/c2ccc(O)cc2)c(OCCO)c1` [CU430, (1E,6E)-1-[4-diethylamino-2-(2-hydroxyethoxy)phenyl]-7-(4-hydroxyphenyl)hepta-1,6-diene-3,5-dione], for which the melting point lay in the range of 182 to 186 °C.

Consider `CCN(CC)c1ccc(/C=C/C(=O)CC(=O)/C=C/c2ccc(N(CC)CC)cc2OCC=C(C)C)c(OCC=C(C)C)c1` [CU431, (1E,6E)-1,7-bis(4-diethylamino-2-prenyloxyphenyl)hepta-1,6-diene-3,5-dione], for which the melting point is 107 to 113 °C. Next, `CCN(CC)c1ccc(/C=C/C(=O)CC(=O)/C=C/c2ccc(N(CC)CC)cc2OC(C)C)c(OC(C)C)c1` [CU433, (1E,6E)-1,7-bis(4-diethylamino-2-isopropyloxyphenyl)hepta-1,6-diene-3,5-dione]: 63 to 66 °C; `CCN(CC)c1ccc(/C=C/C(=O)CC(=O)/C=C/c2ccc(O)c(OC)c2)c(OCc2ccccc2)c1` [CU437, (1E,6E)-1-(2-benzyloxy-4-diethylaminophenyl)-7-(4-hydroxy-3-methoxyphenyl)hepta-1,6-diene-3,5-dione]: 60 to 65 °C. Next, `CCN(CC)c1ccc(/C=C/C(=O)CC(=O)/C=C/c2ccc(OC)c(O)c2)c(OCc2ccccc2)c1` [CU438, (1E,6E)-1-(2-benzyloxy-4-diethylaminophenyl)-7-(3-hydroxy-4-methoxyphenyl)hepta-1,6-diene-3,5-dione]: 72 to 77 °C. In the case of `CCN(CC)c1ccc(/C=C/C(=O)CC(=O)/C=C/c2ccc(O)c(OC)c2)c(OC(C)C)c1` [CU439, (1E,6E)-1-(4-diethylamino-2-isopropyloxyphenyl)-7-(4-hydroxy-3-methoxyphenyl)hepta-1,6-diene-3,5-dione], the melting point lay within 156 to 160 °C. Next, `CCN(CC)c1ccc(/C=C/C(=O)CC(=O)/C=C/c2ccc(OC)c(O)c2)c(OC(C)C)c1` [CU440, (1E,6E)-1-(4-diethylamino-2-isopropyloxyphenyl)-7-(3-hydroxy-4-methoxyphenyl)hepta-1,6-diene-3,5-dione]: 117 to 120 °C; `CCN(CC)c1ccc(/C=C/C(=O)CC(=O)/C=C/c2ccc(OC)c(O)c2)c(OCC=C(C)C)c1` [CU442, (1E,6E)-1-(4-diethylamino-2-prenyloxyphenyl)-7-(3-hydroxy-4-methoxyphenyl)hepta-1,6-diene-3,5-dione]: 139 to 143 °C. Next, `COc1cc(/C=C/C(=O)CC(=O)/C=C/c2ccc3ccn(Cc4ccccc4)c3c2)ccc1O` [CU443, (1E,6E)-1-(1-benzyl-1H-indol-6-yl)-7-(4-hydroxy-3-methoxyphenyl)hepta-1,6-diene-3,5-dione]: 180 to 184 °C; `COc1ccc(/C=C/C(=O)CC(=O)/C=C/c2ccc3ccn(Cc4ccccc4)c3c2)cc1O` [CU444, (1E,6E)-1-(1-benzyl-1H-indol-6-yl)-7-(3-hydroxy-4-methoxyphenyl)hepta-1,6-diene-3,5-dione]: 190 to 194 °C. The same measure for `O=C(/C=C/c1ccc(O)cc1)CC(=O)/C=C/c1ccc2oc(=O)ccc2c1` [CU445, (1E,6E)-1-(4-hydroxyphenyl)-7-(coumarin-6-yl)hepta-1,6-diene-3,5-dione]: 240 to 246 °C; for `COCOc1ccc(OC)cc1/C=C/C(=O)CC(=O)/C=C/c1cc(OC)ccc1OCOC` [CU447, (1E,6E)-1,7-bis[5-methoxy-2-(methoxymethoxy)phenyl]hepta-1,6-diene-3,5-dione]: 140 to 143 °C; for `CCN(CC)c1ccc(/C=C/C(=O)CC(=O)/C=C/c2ccc(O)cc2)c(OCc2ccc(OC)cc2)c1` [CU448, (1E,6E)-1-[4-diethylamino-2-(4-methoxybenzyloxy)phenyl]-7-(4-hydroxyphenyl)hepta-1,6-diene-3,5-dione]: 71 to 78 °C. For the molecule `CCN(CC)c1ccc(/C=C/C(=O)CC(=O)/C=C/c2ccc(O)cc2)c(OCc2cccnc2)c1` [CU449, (1E,6E)-1-[4-diethylamino-2-(pyridin-3-ylmethoxy)phenyl]-7-(4-hydroxyphenyl)hepta-1,6-diene-3,5-dione], the melting point was in the range of 180 to 186 °C. The same measure for `CCN(CC)c1ccc(/C=C/C(=O)CC(=O)/C=C/c2ccc(O)cc2)c(OCc2c(F)cccc2Cl)c1` [CU450, (1E,6E)-1-[2-(2-chloro-6-fluorobenzyloxy)-4-diethylaminophenyl]-7-(4-hydroxyphenyl)hepta-1,6-diene-3,5-dione]: 172 to 175 °C. Molecule `CCN(CC)c1ccc(/C=C/C(=O)CC(=O)/C=C/c2ccc(O)cc2)c(OCc2ccc(Cl)cc2Cl)c1` [CU451, (1E,6E)-1-[2-(2,4-dichlorobenzyloxy)-4-diethylaminophenyl]-7-(4-hydroxyphenyl)hepta-1,6-diene-3,5-dione] yielded a melting point of 73 to 80 °C. Molecule `CCN(CC)c1ccc(/C=C/C(=O)CC(=O)/C=C/c2ccc(O)cc2)c(OCc2ccc(C(C)(C)C)cc2)c1` [CU452, (1E,6E)-1-[2-(4-tert-butylbenzyloxy)-4-diethylaminophenyl]-7-(4-hydroxyphenyl)hepta-1,6-diene-3,5-dione] came in with a melting point of 187 to 190 °C. The same measure for `COc1cc(/C=C/C(=O)CC(=O)/C=C/c2cccc3cccnc23)ccc1O` [CU453, (1E,6E)-1-(4-hydroxy-3-methoxyphenyl)-7-(quinolin-8-yl)hepta-1,6-diene-3,5-dione]: 83 to 87 °C. As for `COc1ccc(/C=C/C(=O)CC(=O)/C=C/c2cccc3cccnc23)cc1O` [CU454, (1E,6E)-1-(3-hydroxy-4-methoxyphenyl)-7-(quinolin-8-yl)hepta-1,6-diene-3,5-dione], the melting point is 80 to 85 °C. Molecule `COCOc1ccc(OC)cc1/C=C/C(=O)CC(=O)/C=C/c1cc(OC)ccc1O` [CU456, (1E,6E)-1-(2-hydroxy-5-methoxyphenyl)-7-[5-methoxy-2-(methoxymethoxy)phenyl]hepta-1,6-diene-3,5-dione] registered a melting point of 131 to 138 °C. `COc1cc(/C=C/C(=O)CC(=O)/C=C/c2c[nH]c3cccc([N+](=O)[O-])c23)ccc1O` [CU462, (1E,6E)-1-(4-hydroxy-3-methoxyphenyl)-7-(4-nitro-1H-indol-3-yl)hepta-1,6-diene-3,5-dione] had a melting point of 232 to 237 °C. `COc1ccc(/C=C/C(=O)CC(=O)/C=C/c2c[nH]c3cccc([N+](=O)[O-])c23)cc1O` [CU463, (1E,6E)-1-(3-hydroxy-4-methoxyphenyl)-7-(4-nitro-1H-indol-3-yl)hepta-1,6-diene-3,5-dione] returned a melting point of 226 to 233 °C. With `O=C(/C=C/c1ccc(O)cc1)CC(=O)/C=C/c1cccc(Br)c1` [CU464, (1E,6E)-1-(3-bromophenyl)-7-(4-hydroxyphenyl)hepta-1,6-diene-3,5-dione], the melting point fell in the range of 156 to 160 °C. The same measure for `O=C(/C=C/c1ccc(O)cc1)CC(=O)/C=C/c1cc(Cl)ccc1[N+](=O)[O-]` [CU465, (1E,6E)-1-(5-chloro-2-nitrophenyl)-7-(4-hydroxyphenyl)hepta-1,6-diene-3,5-dione]: 241 to 250 °C.

A word on the melting point: it is the temperature, or range, at which the solid turns liquid.

For the origin of these results see patent US8962674B2 (Tokyo Institute of Technology, priority 2006, dated 2015).
